Legend:
[1] = test system: shaved skin of albino rabbits; assay: Skin irritation test; type: in vivo, rabbit; conditions: scale 1 (no irritation) to 10 (maximum irritation); 24 hours exposure
Source text: (§1) Only very mild irritation (score 2 on a 1-10 scale) was observed.

[2] = test system: eye (conjunctiva) of albino rabbits; assay: Eye irritation test; type: in vivo, rabbit; conditions: 1-10 scale
Source text: as §1

[3] = In vitro water binding capacity, stratum corneum pieces, 24 hours at 85% relative humidity; design: species or system human; conditions: after 24 hours, mean, pentane-1,5-diol 20%, urea 10%, control water content subtracted
Experimental: Pieces of stratum corneum from the sole of 7 healthy volunteers were used. […] The specimens were removed after 24 hours for weighing. […] The water binding capacity was estimated by subtracting the WC for stratum corneum incubated with distilled water for 24 hours from the WC for the stratum corneum pieces incubated with the test substances for 24 hours. […] While the latter composition does give rise to itching when applied to eczematous skin, this negative effect is not encountered with the composition according to the invention.

[4] = In vitro water binding capacity, stratum corneum pieces, 6 hrs at 85% relative humidity; conditions: for Water binding capacity after 6 hrs: aqueous 10% by weight solution; for Uptake of water after 6 hrs / Uptake of water after 6 hrs %: pre-incubated with 10% (by weight) solution, relative humidity 85%, room temperature
[5] = aqueous solution containing 20% of pentane-1,5-diol

| Compound | Skin irritation score [1] | Eye irritation score [2] | Water binding capacity [3] [%] | Water binding capacity ([3]; listed as Pentane-1,5-diol) [%] | Water binding capacity after 6 hrs [4] [% by weight] | Water binding capacity [4, 5] [% by weight] | Water content [4, 5] [%] | Uptake of water after 6 hrs [4] [mg] | Uptake of water after 6 hrs % [4] [%] | Water binding capacity ([3]; listed as Urea) [%] |
| --- | --- | --- | --- | --- | --- | --- | --- | --- | --- | --- |
| OCCCCCO [pentane-1,5-diol] | 1 | 2 | 23 | 23 | 9 | 13 | 24 | 0.0075 | 20 |  |
| CC(O)CO (centres unmarked) [propane-1,2-diol] |  |  |  |  | 7 |  |  | 0.0032 | 18 |  |
| NC(N)=O [urea] |  |  | 16 |  | 17 |  |  | 0.0109 | 28 | 16 |
